In ChEMBL document CHEMBL1125625, “Antinociceptive (aminoalkyl)indoles” (J Med Chem, 1991):

Assays:
Assay type in all cases: functional
Mus musculus [1] = assay: Acetylcholine writhing inhibitory activity was measured in mouse (in vivo) by iv administration
Mus musculus [2] = assay: Acetylcholine writhing inhibitory activity for the compound was measured in mouse (in vivo) by peroral administration at 1000 uM
Mus musculus [3] = assay: Acetylcholine writhing inhibitory activity for the compound was measured in vivo in mouse by peroral administration at 20 uM
Mus musculus [4] = assay: Acetylcholine writhing inhibitory activity measured in vivo in mouse by peroral administration; conditions: po
Mus musculus [5] = assay: Acetylcholine writhing inhibitory activity for the compound was measured in mouse (in vivo) by iv administration at 30 uM
Mus musculus [6] = assay: Acetylcholine writhing inhibitory activity for the compound was measured in vivo in mouse by peroral administration at 238 uM
Mus musculus [7] = assay: Acetylcholine writhing inhibitory activity for the compound was measured in vivo in mouse by peroral administration at 300 uM
Rattus norvegicus [8] = assay: Adjuvant arthritis paw flexion activity for the compound was measured in rat (in vivo) by peroral administration; conditions: po
Rattus norvegicus [9] = assay: Acetic acid writhing inhibitory activity for the compound was measured in rat (in vivo) by peroral administration; conditions: po
Rattus norvegicus [10] = assay: Intra arterial bradykinin activity for the compound was measured in rat (in vivo) by peroral administration
Mus musculus [11] = assay: Acetylcholine writhing inhibitory activity for the compound was measured in vivo in mouse by peroral administration at 100 uM
Rattus norvegicus [12] = assay: Randall-Selitto activity for the compound was measured in rat (in vivo) by peroral administration; conditions: po, read-out: MED

| Structure (SMILES) | ED50 (Mus musculus [4]) | other results |
| --- | --- | --- |
| Cc1c(C(=O)c2cccc3ccccc23)c2ccccc2n1CCN1CCOC(O)C1 (stereo unspecified) |  | ED50 (Mus musculus [1]): 9.7 mg/kg; Inhibition (Mus musculus [2]): 50% |
| Cc1cccc(C(=O)c2c(C)n(CCN3CCOCC3)c3ccccc23)c1 |  | Inhibition (Mus musculus [3]): 20% |
| CSc1ccc(C(=O)c2c(C)n(CCN3CCOCC3)c3ccccc23)cc1 | 22 mg/kg |  |
| COc1ccc(C(=O)c2c(C)n(CCN3CCNCC3)c3ccccc23)cc1 | 21 mg/kg |  |
| O=C(c1cccc2ccccc12)c1cn(CCN2CCOCC2)c2ccccc12 | 23 mg/kg | ED50 (Mus musculus [1]): 0.12 mg/kg |
| COc1ccc(C(=O)c2c(C)n(CCN3CCCC(O)C3)c3ccccc23)cc1 (stereo unspecified) | 26 mg/kg |  |
| COc1ccc(C(=O)c2c(C)n(CCN(C)C)c3ccccc23)cc1 | 65 mg/kg |  |
| CC(C(=O)O)n1cc(C(=O)c2ccccc2F)c2ccccc21 (stereo unspecified) | 8 mg/kg |  |
| Cc1c(C(=O)c2csc3ccccc23)c2ccccc2n1CCN1CCOCC1 |  | Inhibition (Mus musculus [5]): 60% |
| COc1ccc(C(=O)c2c(C)n(CCN3CCC(O)CC3)c3ccccc23)cc1 | 68 mg/kg |  |
| Cc1c(C(=O)c2ccccc2F)c2ccccc2n1C(C)C(=O)O (stereo unspecified) | 12 mg/kg |  |
| CC(CN1CCOCC1)n1cc(C(=O)c2ccccc2F)c2ccccc21 (stereo unspecified) | 19 mg/kg |  |
| Cc1c(C(=O)c2ccc(F)cc2)c2ccccc2n1CCN1CCOCC1 |  | Inhibition (Mus musculus [6]): 60% |
| COc1ccc(C(=O)c2c(C)n(CCN3CCCCC3)c3ccccc23)cc1 |  | Inhibition (Mus musculus [7]): 71% |
| Cc1c(C(=O)c2ccccc2F)c2ccccc2n1[C@H](C)CN1CCOCC1 | 9 mg/kg |  |
| C[C@@H](C(=O)O)n1cc(C(=O)c2ccccc2F)c2ccccc21 |  | ED50 (Mus musculus [1]): 38 mg/kg |

| Structure (SMILES) | ED50 (Mus musculus [4]) | other results |
| --- | --- | --- |
| C[C@H](CN1CCOCC1)n1cc(C(=O)c2ccccc2F)c2ccccc21 | 11 mg/kg |  |
| C[C@H](C(=O)O)n1cc(C(=O)c2ccccc2F)c2ccccc21 |  | ED50 (Mus musculus [1]): 5 mg/kg |
| C[C@@H](CN1CCOCC1)n1cc(C(=O)c2ccccc2F)c2ccccc21 | 48 mg/kg |  |
| CCNCCn1c(C)c(C(=O)c2ccc(OC)cc2)c2ccccc21 | 46 mg/kg |  |
| CCc1c(C(=O)c2ccc(OC)cc2)c2ccccc2n1CCN1CCOCC1 | 82 mg/kg |  |
| COc1ccc(C(=O)c2c(C)n(CCCCCCN3CCOCC3)c3ccccc23)cc1 | 28 mg/kg |  |
| Cc1c(C(=O)c2cccc3ccccc23)c2ccccc2n1CCN1CCOCC1 |  | ED50 (Rattus norvegicus [8]): 30 mg/kg; ED50 (Rattus norvegicus [9]): 38 mg/kg; ED50 (Mus musculus [1]): 0.19 mg/kg; ED50 (Rattus norvegicus [10]): 52 mg/kg |
| COc1ccc(C(=O)c2c(C)n(CC(=O)O)c3ccccc23)cc1 | 173 mg/kg |  |
| CCN(CC)CCn1c(C)c(C(=O)c2ccc(OC)cc2)c2ccccc21 | 50 mg/kg |  |
| Cc1c(C(=O)c2ccccc2F)c2ccccc2n1[C@@H](C)CN1CCOCC1 | 37 mg/kg |  |
| Cc1c(C(=O)c2cccc(F)c2)c2ccccc2n1CCN1CCOCC1 |  | Inhibition (Mus musculus [11]): 30% |
| COc1ccc(C(=O)c2c(C)n(CCCCCN3CCOCC3)c3ccccc23)cc1 | 15 mg/kg |  |
| Cc1c(C(=O)c2ccccc2F)c2ccccc2n1CCN1CCOCC1 | 79 mg/kg |  |
| COc1ccc(C(=O)c2c(C)n(CCCCN3CCOCC3)c3ccccc23)cc1 | 56 mg/kg |  |
| O=C(c1ccccc1)c1ccc2n1CCC2C(=O)O (stereo unspecified) [KETOROLAC] | 1.1 mg/kg |  |
| COc1ccc(C(=O)c2c(C)n(CCN3CCOCC3)c3ccccc23)cc1 [PRAVADOLINE] | 41 mg/kg | ED50 (Rattus norvegicus [8]): 100 mg/kg; minimal effective dose (Rattus norvegicus [12]): 1 mg/kg; ED50 (Rattus norvegicus [9]): 15 mg/kg; ED50 (Rattus norvegicus [10]): 120 mg/kg |
